Test results from patent publication US5863773A, “Antifungal corynecandin” (Abbott Laboratories, priority 1997, dated 1999).
≈ marks a conversion by molar mass, not a printed value. Numbered stars: 1 amine (or outer) side, 2 acyl side, 3 side chain; on linkers, the order of the positions; unused ones are H or OH. Bridge positions count the residues as written; N and C are the ends. Square brackets hold non-standard residues; d marks the D form. Peptide text beside a SMILES is read from it. * marks the point of attachment. Orn(4R-OH,5R-OH) = O=C([C@H](C[C@@H](O)[C@@H](O)N[*:3])N[*:1])[*:2]; hTyr(3S-OH,4S-OH) = N[C@H](C(=O)O)[C@H](O)[C@@H](O)c1ccc(O)cc1; Pro(3S-OH,4S-Me) = C[C@H]1CN[C@H](C(=O)O)[C@H]1O; Benzoyl(4-octyloxy) = CCCCCCCCOc1ccc(C(=O)*)cc1; Hyp = O=C(O)[C@@H]1C[C@@H](O)CN1

Tests used:
fungal organisms = test: Microtiter broth dilution assay of antifungal activity (MIC) in the presence and absence of 0.8M sorbitol; format: cell-based; settings: for MIC: 48 h, read-out: Broth Dilution Assay MIC at 2 day growth, w/o sorbitol; for Broth Dilution Assay MIC at 2 day growth, with sorbitol: with 0.8M sorbitol; for Broth Dilution Assay MIC at 2 day growth, with sorbitol / Broth Dilution Assay MIC at 2 day growth, w/o sorbitol: final concentration of cells 2 × 10^5 organisms/ml; for Broth Dilution Assay MIC at 2 day growth, w/o sorbitol: without sorbitol
Protocol: Minimal inhibitory concentrations (MICs) of corynecandin related compounds in the microtiter broth dilution in the presence and absence of 0.8M sorbitol assay were determined by a broth dilution assay described by Frost, D., Brandt, K., Cugier, D., and Goldman, R. in J. Antibiotics 48: 306-310 (1995), which is incorporated herein by reference.
^a Assay conducted as described in Frost et al., ibid, except final
concentration of cells was 2 × 10^5 organisms/ml.

(1,3)-β-Glucan Synthase = molecular target: T1, (1,3)-β-Glucan Synthase (Candida albicans, UniProt A0A1D8PCT0); test: In vitro inhibition of (1,3)-β-glucan synthase activity; format: biochemical
T1 construct: integral plasma membrane protein
Source text: The fungal cell wall serves as a protective barrier and is essential for viability in a hypotonic environment. (1,3)-β-Glucan is a component of the Candida albicans cell wall, and the enzyme that biosynthesizes this polymer, glucan synthase, is not present in higher eukaryotes. (Glucan synthase is an integral plasma membrane protein that catalyzes polymerization of uridine diphosphate-glucose (UDP-Glc) into β-glucan.) Accordingly, glucan synthase represents an ideal target for the development of antifungal agents.
The assay was conducted as described by Frost, D., Brandt, K. Capobioanco, and Goldman, R., Microbiology 140: 2239-2246 (1994) which is incorporated herein by reference.

T1 sequence (A0A1D8PCT0 1-1897): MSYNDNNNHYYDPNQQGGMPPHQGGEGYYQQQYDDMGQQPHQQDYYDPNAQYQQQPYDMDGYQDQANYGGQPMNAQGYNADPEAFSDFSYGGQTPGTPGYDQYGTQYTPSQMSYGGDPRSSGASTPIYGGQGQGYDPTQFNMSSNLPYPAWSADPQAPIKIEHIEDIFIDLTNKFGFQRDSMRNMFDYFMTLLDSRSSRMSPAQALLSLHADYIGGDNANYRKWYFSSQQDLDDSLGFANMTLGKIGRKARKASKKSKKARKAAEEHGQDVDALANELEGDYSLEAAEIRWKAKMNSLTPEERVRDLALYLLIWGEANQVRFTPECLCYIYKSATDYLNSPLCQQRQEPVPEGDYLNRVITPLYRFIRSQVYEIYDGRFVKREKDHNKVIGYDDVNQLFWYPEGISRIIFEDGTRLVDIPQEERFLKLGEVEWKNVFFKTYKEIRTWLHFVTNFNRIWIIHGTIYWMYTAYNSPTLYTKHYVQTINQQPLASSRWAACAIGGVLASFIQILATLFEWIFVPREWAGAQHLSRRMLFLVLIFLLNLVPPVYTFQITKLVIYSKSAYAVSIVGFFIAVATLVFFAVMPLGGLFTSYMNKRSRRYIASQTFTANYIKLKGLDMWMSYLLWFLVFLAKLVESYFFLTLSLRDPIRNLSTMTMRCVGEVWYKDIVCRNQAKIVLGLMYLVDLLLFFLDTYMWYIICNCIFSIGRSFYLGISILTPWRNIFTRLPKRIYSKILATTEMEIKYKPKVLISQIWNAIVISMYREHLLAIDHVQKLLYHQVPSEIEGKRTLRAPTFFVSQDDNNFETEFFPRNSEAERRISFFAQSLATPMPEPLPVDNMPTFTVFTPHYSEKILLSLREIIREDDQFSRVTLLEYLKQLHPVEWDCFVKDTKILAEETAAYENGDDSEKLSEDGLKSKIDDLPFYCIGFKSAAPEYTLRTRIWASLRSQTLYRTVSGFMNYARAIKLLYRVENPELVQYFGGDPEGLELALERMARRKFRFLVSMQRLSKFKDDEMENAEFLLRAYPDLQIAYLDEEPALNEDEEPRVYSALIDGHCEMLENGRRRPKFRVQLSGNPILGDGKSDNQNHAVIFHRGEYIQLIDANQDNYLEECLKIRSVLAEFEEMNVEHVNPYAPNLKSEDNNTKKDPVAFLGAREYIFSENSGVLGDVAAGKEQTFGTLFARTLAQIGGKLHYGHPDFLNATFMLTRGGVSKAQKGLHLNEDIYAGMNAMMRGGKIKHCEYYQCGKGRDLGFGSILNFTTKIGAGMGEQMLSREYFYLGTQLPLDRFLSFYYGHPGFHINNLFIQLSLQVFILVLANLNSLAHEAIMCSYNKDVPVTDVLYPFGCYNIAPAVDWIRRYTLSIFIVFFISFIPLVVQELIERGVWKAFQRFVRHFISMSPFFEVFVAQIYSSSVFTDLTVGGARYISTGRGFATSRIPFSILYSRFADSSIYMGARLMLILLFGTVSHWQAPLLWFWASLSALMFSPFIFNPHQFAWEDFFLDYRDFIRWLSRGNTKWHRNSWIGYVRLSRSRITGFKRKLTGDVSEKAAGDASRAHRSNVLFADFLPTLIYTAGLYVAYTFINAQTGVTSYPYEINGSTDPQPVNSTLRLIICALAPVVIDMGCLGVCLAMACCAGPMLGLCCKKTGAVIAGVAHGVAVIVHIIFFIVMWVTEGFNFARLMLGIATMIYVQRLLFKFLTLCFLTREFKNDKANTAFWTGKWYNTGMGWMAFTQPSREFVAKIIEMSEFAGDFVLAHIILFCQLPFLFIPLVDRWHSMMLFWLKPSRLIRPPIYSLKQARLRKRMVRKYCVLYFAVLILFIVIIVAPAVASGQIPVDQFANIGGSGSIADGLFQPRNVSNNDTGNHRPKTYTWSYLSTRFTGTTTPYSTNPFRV
T1 sequence (O42825 1-195 partner): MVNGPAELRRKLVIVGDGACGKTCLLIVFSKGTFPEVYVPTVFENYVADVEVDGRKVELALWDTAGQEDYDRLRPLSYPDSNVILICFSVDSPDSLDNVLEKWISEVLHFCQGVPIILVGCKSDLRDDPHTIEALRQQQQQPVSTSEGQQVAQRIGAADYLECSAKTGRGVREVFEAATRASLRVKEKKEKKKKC

Row | Molecule | MIC (fungal organisms) [µg/mL] | Rescue of cell growth by sorbitol (fungal organisms; cells treated with compound, sorbitol present) | In Vitro Inhibition of (1,3)-β-Glucan Synthase Activity IC50 ((1,3)-β-Glucan Synthase) [µg/mL] | Broth Dilution Assay MIC at 2 day growth, with sorbitol (fungal organisms) [µg/mL] | Broth Dilution Assay MIC at 2 day growth, w/o sorbitol (fungal organisms) [µg/mL]
1 | C[C@@H]1[C@H](O)[C@@H](C)/C=C/C=C/C=C/C=C/C=C/C=C/C=C/[C@H](O[C@@H]2O[C@H](C)[C@@H](O)[C@H](N)[C@@H]2O)C[C@@H]2O[C@](O)(C[C@@H](O)C[C@@H](O)[C@H](O)CC[C@@H](O)C[C@@H](O)CC(=O)O[C@H]1C)C[C@H](O)[C@H]2C(=O)O [Amphotericin B] | 480 (≈ 519 µM) |  |  |  | 
2 | CCCCCCCCOc1ccc(C(=O)N[C@H]2C[C@@H](O)[C@@H](O)NC(=O)[C@@H]3[C@@H](O)[C@@H](C)CN3C(=O)[C@H]([C@@H](C)O)NC(=O)[C@H]([C@H](O)[C@@H](O)c3ccc(O)cc3)NC(=O)[C@@H]3C[C@@H](O)CN3C(=O)[C@H]([C@@H](C)O)NC2=O)cc1 [Cilofungin] ({Benzoyl(4-octyloxy)}-[Orn(4R-OH,5R-OH)]T[Hyp][hTyr(3S-OH,4S-OH)]T[Pro(3S-OH,4S-Me)]; lactam 1-C) | 980 (≈ 951 µM) |  |  |  | 
3 | CCCCC/C=C\C=C\C(=O)OC[C@H]1O[C@@H](O[C@H]2[C@H](OC(=O)/C(C)=C/C=C/CC(O)C(C)CC)[C@@H](O)[C@H](c3c(O)cc(O)cc3CO)O[C@@H]2CO)[C@H](O)[C@@H](O)[C@H]1O (stereo partly shown) [Corynecandin] | 980 (≈ 1210 µM) | Sorbitol could rescue the growth of cells |  |  | 
4 | CCC(O)/C=C/C=C/C=C/C(=O)OC[C@H]1O[C@@H](O[C@H]2[C@H](OC(=O)/C=C/C=C/CC(O)/C(C)=C/C=C/CCC(C)CC)[C@@H](O)[C@@]3(OCc4cc(O)cc(O)c43)O[C@@H]2CO)[C@H](O)[C@@H](O)[C@H]1O (stereo partly shown) [Papulacandin B] |  |  | 1.9 | > 250000 | 1960
5 | Fusacandin |  |  | 25.0 | > 250000 | 1960
